In article PMC11053681, “Gold(I) and Silver(I) Complexes Containing Hybrid Sulfonamide/Thiourea Ligands as Potential Leishmanicidal Agents” (Pharmaceutics, 2024):
Entries after “also recorded” stand apart in the source; their conditions may differ.

Key:
[1] = test system: RAW macrophages infected with Leishmania infantum; experiment: Infectivity test / infection rate in RAW macrophages; assay type: cell-based; conditions: three concentrations (below IC50, IC50, above IC50), 24 h treatment
Procedure: For the infection of RAW macrophages adhered to the plates, we used parasites in the promastigote form of Leishmania infantum, in the stationary phase, in a ratio of 10:1 (promastigotes/macrophages).
Macrophages were plated in the amount of 5 × 10^4 cells per well, in 96-well plates, which were kept in a CO2 oven at 37 °C for 24 h. The parasites were plated at a concentration of 10:1. The plates were kept in a CO2 oven for 12 h until the parasites infected the cells. […] Plates were fixed with paraformol for further evaluation. Plaques were evaluated by counting parasites within 200 cells under the EVOS Cell Imaging System (Thermo Scientific, Waltham, MA, USA) microscope by staining with propidium iodide.
In view of the data obtained, the six most promising compounds (HL1^Ch, HL2^Ph, Ag3, Ag4, Ag6 and Au2) were selected for carrying out the infection rate test against the L. infantum parasite. […] This test was performed at four stages. The first step determined the percentage of the amount in 200 infected macrophages per parasite, the second determined the percentage of parasites that infects 100 cells/macrophages, the third determined the average percentage of parasites that infects 200 cells/macrophages and, finally, the fourth step indicated the infection rate, that is, the result of the amount of Leishmania per macrophage (obtained from the third step) multiplied by the percentage of infected macrophages. Figure 5 presents the graphs of the infection rates, while the other graphs can be found in Figure S7.4.

LbOYE = LbOYE (Leishmania braziliensis, UniProt A4H6Z3); experiment: LbOYE enzyme kinetics (NADPH decay at 340 nm); assay type: biochemical; conditions: 20 µmol L^−1 compound, 1 µmol L^−1 LbOYE, 100 µmol L^−1 NADPH; substrates NEM and O2
LbOYE, sequence (A4H6Z3 entry or part of it): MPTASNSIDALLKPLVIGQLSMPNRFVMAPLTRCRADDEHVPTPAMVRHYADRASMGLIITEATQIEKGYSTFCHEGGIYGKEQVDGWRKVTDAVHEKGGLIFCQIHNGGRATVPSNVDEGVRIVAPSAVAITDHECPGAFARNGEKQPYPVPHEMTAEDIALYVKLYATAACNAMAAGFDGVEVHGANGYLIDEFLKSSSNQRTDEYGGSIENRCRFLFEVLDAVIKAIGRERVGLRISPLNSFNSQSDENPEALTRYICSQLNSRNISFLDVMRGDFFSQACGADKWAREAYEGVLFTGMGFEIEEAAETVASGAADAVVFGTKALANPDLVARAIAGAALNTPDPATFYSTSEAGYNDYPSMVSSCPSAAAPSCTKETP
Procedure: The initial rates were obtained through the decay of the band at 340 nm referring to the maximum absorption of the NADPH (Nicotinamide Adenine Dinucleotide Phosphate) reducer, as previously reported. Solutions containing 1 µmol L^−1 of LbOYE, DMSO or 20 µmol L^−1 of the tested compounds from a stock solution at a concentration of 5 mmol L^−1 in DMSO were prepared in the presence and absence of the substrate N-Ethylmaleimide (NEM). These solutions were left for 30 min at room temperature. After 30 min, the NADPH reducer was added at a final concentration of 100 µmol L^−1.
Figure 7 Initial velocity (V0) for the reaction between 1 µmol L^−1 of LbOYE and 100 µmol L^−1 of NADPH in the presence of DMSO (control) or 20 µmol L^−1 of the compounds tested. Using (A) 100 µmol L^−1 of NEM in the presence of O2 and (B) absence of NEM in the presence of O2. Experiments carried out in phosphate buffer 25 mmol L^−1 pH 7.0, NaCl 100 mmol L^−1.

Compound: Cc1ccc(S(=O)(=O)NNC(Nc2ccc(F)cc2)=[S][Ag+][S]=C(NNS(=O)(=O)c2ccc(C)cc2)Nc2ccc(F)cc2)cc1.O=[N+]([O-])[O-] [Ag3, [Ag(HL3^FPh)2]NO3]
- Infection rate of L. infantum in macrophages, in words [1]: able to inhibit the parasite infection inside the cells even at lower concentrations than that determined by their IC50 values; also recorded: able to inhibit the parasite infection even at lower concentrations than that of their IC50 values
- Inhibition of LbOYE reaction (initial velocity V0), in words (LbOYE): capable of inhibiting the reaction of the enzyme both with the NEM and for O2
